Consider 13 compounds from patent publication EP0692191A1, “UTILIZATION OF PHENYL COMPOUNDS FOR THE CONTROL OF PHYTOPARASITE NEMATODES” (UNIVERSIDAD DE LA LAGUNA, priority 1993, dated 1995).

Several values for one entry are separate records, joined by “and”; a condition that tells them apart may be missing. Equal entries are not always repeated. Where two headings read alike, the source gives them in different places. Marks after values point to notes of the source that are not given here. Bounds are passed on as bounds.

Series [1] deals with Globodera rostochinesis und Globodera pallida. The series can be described thus: Nematicidal effect: lethal concentrations on second-stage juveniles, 24 h (Example 1). Conditions: for LC50: read-out: CL50; for EC100: read-out: CL100.
Series [2] concerns Mäusen. The conditions noted are these: mouse, in vivo; cited from earlier work.
In series [3] the test system is Globodera rostochienensis und Globodera pallida. The series can be described thus: Nematostatic effect: inhibition of hatching from cysts (Example 2). Format: in vivo. The conditions noted are these: for activity at 10 µM: im, 360 h, 0,01 mmol, read-out: Bildung von Einschlußkörpern im Verhältnis zur Bekämpfung. From the text: Man realisierte ein Experiment, um den Effekt von trans-1,3-Diphenyl-2-propen-1-on bei der Bildung von Einschlußkörpern der Globodera spp. zu sehen. Man setzte 10 Zysten einer gemischten Population der Spezie Globodera rostochienensis und Globodera pallida in Violen mit 2cc einer Lösung, die 10 mmol ZnSO4 als Induktionsmittel der Bildung von Einschlußkörpern enthielt, und eine variable Konzentration von trans-1,3-Diphenyl-2-propen-1-on (0,05, 0,04, 0,03, 0,01 und 0,005 mmol). Die in den vier Replikatoren und in den Bekämpfungen entwickelten Jungen zählte man periodisch während 15 Tagen. Auf der Basis der Regressionskurve, die die Resultate des Experimentes besser beschreibt, schätzte man, was die Anwesenheit von nur 0,007 mmol von trans-1,3-Diphenyl-2-propen-1-on während 15 Tagen ausreichend war, um die Bildung von Einschlußkörpern auf die Hälfte derjenigen der Bekämpfung zu reduzieren.
Nachfolgend und mit dem Ziel zu sehen, ob die Hinderung der Bildung von Einschlußkörpern irreversibel sei, entfernt man die Zysten, wäscht man mit destilliertem Wasser und setzt sie in neue Violen mit 2cc einer Lösung, die lediglich das Induktionsmittel der Bildung von Einschlußkörpern (10 mmol ZnSO4) enthielt. Man fand heraus, das der Bildung von Einschlußkörpern hindernde Effekt des trans-1,3-Diphenyl-2-propen-1-on bei einer Dosis über 0,03 mmol unumkehrbar ist. Die bei der Dosis von 0,01 mmol auftretende Bildung von Einschlußkörpern war deutlich geringer als die der Bekämpfung (37,28%) in den ersten 15 Tagen und praktisch null ( es entwickelten sich lediglich 4,6% im Verhältnis zur Bekämpfung) nach der Herausnahme des trans-1,3-Diphenyl-2-propen-1-on bei 15 Tagen seit Beginn des Experimentes (Figur 3).

Series [4] concerns Vinca major, Adiantum capillus-veneris, Begonia rex, Hedera helix. The series can be described thus: Phytotoxicity: development of laboratory plants (5.2). Conditions: 0,05 mmol with irrigation at field capacity, 50 days, 25°C, 80% relative humidity. Format: in vivo. As for the experimental part: Die Phytotoxizität der trans-1,3-Diphenyl-2-propen-1-on studierte man im Laboratorium unter Benutzung von Vinca major Pflanzen (8 Pflanzen), Adiantum capillus-veneris (2 Pflanzen), Begonia rex (2 Pflanzen) und Hedera helix (2 Pflanzen), die man an Ort und Stelle zog und in einer Kammer bei 25°C, 80% relativer Luftfeuchtigkeit und 13 Stunden Licht pro Tag kultivierte. Die Hälfte der Pflanzen behandelte man mit einer Dosis von trans-1,3-Diphenyl-2-propen-1-on von 0,05 mmol, das man auf eine Bewässerung mit Feldkapazität anwendete.

The subject of series [5] is Kresse (Nasturtium officinale). The series can be described thus: Phytotoxicity: germination and elongation of cress seeds (5.1). Conditions: for activity at 50 µM / activity at 500 µM: Nasturtium officinale, 168 h.
Series [6] concerns Albino-Swiss Maus. The series can be described thus: Acute toxicity in male Albino-Swiss mouse, intraperitoneal (Example 3). Format: in vivo. The source says: (§1) Man studierte die Toxizität bei einer männlichen ,Albino-Swiss" Maus mittels der intraperitonealen (i.p.) Anwendung variabler Dosen von trans-1,3-Diphenyl-2-propen-1-on bei 10 […] zur Behandlung. Man wertete die Nummer der toten Tiere nach 24 Stunden der Anwendung und berechnete die Gleichung der Regressionskurve, die die Resultate des Experimentes besser beschreibt. Ausgehend von den Regressionsgleichungen schätzte man dieDL50 und DL0 (Dosen des trans-1,3-Diphenyl-2-propen-1-on ohne offensichtlichen Effekt) bei 24 Stunden. Ebenso schätzte man das Potential der Toxizität (pT) (Luckey und Venugopal, 1977. J. Toxicol. & Envirn. Health. 2:633.)
(§2) Das DL50 schätzte man bei 1494 mg/Kg bei 24 Stunden (Figur 4). Ausgehend von diesen Daten deduzierte man das das trans-1,3-Diphenyl-2-propen-1-on eine leicht toxische Substanz ist mit DL50 schwankend zwischen 0,5 und 5 g/kg (Loomis, 1982. Ed acribia. Zaragoza, 33-43). Der letale Effekt null für trans-1,3-Diphenyl-2-propen-1-on bei 24 Stunden war DL0=653,85 mg/kg.
(§3) Das toxische Potential schätzte man auf pT50=2,14.

Assay in series [7]: as above
The class given is in vivo, Albino-Swiss Maus. The conditions noted are these: mouse, in vivo, ip, male Albino-Swiss mouse, intraperitoneal, 24 h, estimated from regression curve; read-out: DL50.
Source text: as §1, §2, §3

Series [8] has as its system Musa spp. cv Cavendish ,,Gran enano". The series can be described thus: Phytotoxicity: banana plants (5.2). The class given is in vivo. The source says:
Man studierte gleitherweise die Phytotoxizität von trans-1,3-Diphenyl-2-[…] auf Pflanzen der Bananenpflanzung (Musa spp. cv Cavendish ,Gran enano"). Bananenpflanzungen, die drei Monate alt waren und aus einer Kultivierung in vitro stammten, pflanzte man in Holzkübel von 5 l Kapazität mit einem Substrat von 1:1:1 (Torf:Sand:Kies) und ordnete diese zufällig in einem Gewächshaus an. Für dieses Experiment ordnete man 10 Replikatoren zur Behandlung und 5 zur Bekämpfung an. […]

Series [9] deals with M. javanica. The series can be described thus: Infestation index of tomato roots (1.3). The class given is in vivo. The conditions noted are these: index 0 to 5; tomato plants in soil treated as in experiment 1.2; untreated soil ima=4,33. From the text: Man pflanzte Tomatenpflanzen in einer kommerziell erhältlichen Auswahl, anfällig für M. javanica, um die Pflanzen der Bananenpflanzung, die mit trans-1,3-Diphenyl-2-propen-1-on des Experimentes 1.2 behandelt wurde, wie auch um solche, die nicht behandelt wurden. Der Index des Befalles der Wurzeln der Tomate gab uns eine näherungsweise Vorstellung des Niveaus der Infektion mit Nematoden der Wurzelknoten im Feld (Bridge & Page, 1980. Tropical Pest Management, 26:296-298). Zur Klassifikation der angegriffe der Nematoden auf die Wurzeln der Tomate etablierte man einen Index des Befalles von 0 bis 5. Die Pflanzen, die in dem mit trans-1,3-Diphenyl-2-propen-1-on behandeltem Boden wuchsen, erhielten einen mittleren Befallindex (ima) der deutlich kleiner war (ima=3) als derjenige der Pflanzen, die im Boden ohne Behandlung (ima=4,33) wuchsen.

The nature of series [10]: Brine shrimp assay (Example 4). The conditions noted are these: in vivo, Artemia salina, read-out: CL50. The source says:
Die Analyse der Toxizität einer Substanz auf eine Salzgarnele Artemia salina (Brine shrimp) vermitteln eine angenäherte Vorstellung der biologischen Aktivität eines Produktes und insbesondere seiner Zytotoxizität.
Das Experiment wurde durchgeführt nach der Methode, die durch Mayer et al., 1982, beschrieben wurde ( Planta Med. 45:31-34), wobei das CL50 bei 24 Stunden für die Garnelen berechnet wird. Man benutzte vier Replikatoren, jeweils mit einer der Konzentrationen von trans-1,3-Diphenyl-2-propen-1-on (0,1, 0,01, 0,001 und 0,0001 mmol) und adäquate Bekämpfungen. Das geschätzte CL50 lag bei 0,0247 mmol, Dosen, die annäherungsweise mit denjenigen übereinstimmen, die für die Larven des zweiten Stadiums der Nematoden der Zyste berechnet wurden (CL50=0,033).

Series [11] relates to Meloidogyne javanica. The series can be described thus: Field effect in a banana plantation greenhouse infested with nematodes (1.2). The class given is in vivo. The conditions noted are these: 0,05 mmol solution, 3000 l with irrigation water; soil samples three days later. The source says:
Man bereitete 3000 Liter einer Lösung von trans-1,3-Diphenyl-2-propen-1-on 0,05 mmol und verwendete diese am Boden mit dem Wasser der Bewässerung in einem Gewächshaus der Bananenanpflanzung, das von dem phytoparasitischen Nematoden Meloidogyne javanica befallen war. Drei Tage später nahm man Proben des Bodens der behandelten Parzelle und stellte fest, das in den Extraktionen von Nematoden mittels der Methode der Zentrifugation auf Zucker (Extraktion von sowohl lebenden und toten Nematoden) lediglich 25% lebende Larven der M. javanica zu finden waren, sodaß die Behandlung mit trans-1,3-Diphenyl-2-propen-1-on eine Näherungsweiseeffektivität von 75% hatte.

For series [12] the following is noted: tomato, in vivo.
Series [13] concerns Tomate (Lycopersicum esculentum var. marglobe). The series can be described thus: Phytotoxicity: germination and elongation of tomato seeds (5.1). The conditions noted are these: tomato, 0,05 and 0,5 mmol, statement in words.
Series [14] relates to Ratte. Conditions: rat, cited from earlier work.
Setting [15] is: read-out: TE: Rate der Verlängerung.

For `O=C1CCC(c2ccccc2)O1` (centres unmarked) [Verbindung 6, γ-Phenyl-γ-butirolacton], in [1], the LC50 is 282 µM and 45.7 µg/mL; the EC100 is < 1000 µM and < 162 µg/mL.

On to `O=C/C=C/c1ccccc1` [Verbindung 3, trans-Zimtaldehyd], for which, in series [1], the LC50 was 24 µM and 3.17 µg/mL; the EC100 was < 1000 µM and < 132 µg/mL.

For `O=C(Cc1ccccc1)Cc1ccccc1` [Verbindung 7, 1,3-Diphenylaceton], the LC50 in series [1] was 961 µM and 202 µg/mL.

In the case of `CNC(=O)Oc1cccc2c1OC(C)(C)C2` [Carbofurano], the DL50 in [2] is 2 mg/kg.

Consider `CNC(=O)O/N=C/C(C)(C)SC` [Aldicarb], for which the DL50 in series [2] was 0,3 mg/Kg.

As for `CN1CSC(=S)N(C)C1` [Dazomet], the DL50 in [2] was 180 mg/kg.

As to `CCOP(=O)(NC(C)C)Oc1ccc(SC)c(C)c1` (centres unmarked) [Fenamifos], in series [2], the DL50 was 22,7 mg/Kg.

Consider `O=C(/C=C/c1ccccc1)c1ccccc1` [Verbindung 8, trans-1,3-diphenyl-2-propen-1-on], for which the IC50 in series [3] (Globodera pallida, 360 h, 15 days exposure, 10 mmol ZnSO4 as hatching inducer, hatching reduced to half of control, read-out: Bildung von Einschlußkörpern hemmende Dosis 50 (DIE50)) was found to be 7 µM. In series [3] (Globodera pallida, after removal of the compound at day 15), the activity at 10 µM came out at 4.6%. Moreover, the activity at 10 µM in series [3] (Globodera pallida, first 15 days) came out at 37.3%. The “Bildung von Einschlußkörpern” value in [3] (concentrations of 0,03 mmol and more, 15 days) is “hörte die Bildung von Einschlußkörpern völlig auf”. For the same compound, in series [3] (dose above 0,03 mmol, cysts washed and placed in 10 mmol ZnSO4 only), the “Reversibility of the hatching-inhibiting effect” value is “unumkehrbar”. The “Wachstum und allgemeiner Aspekt der Pflanzen” value in series [4] is on record as “keine Unterschiede im Wachstum oder im allgemeinen Aspekt”. Further, in series [5] (setting [15]), the activity at 50 µM was determined as 97.9% and the activity at 500 µM was 18.4%. Further, in [5] (read-out: TG: Rate der Keimung), the activity at 50 µM was 78.4% and the activity at 500 µM was 86.5%. Moreover, the “TE: Rate der Verlängerung” value in series [5] (cress primary root, 0,5 mmol, 7 days, 25°C, percent of control) is “deutliche Verminderung der primären Wurzel”. In addition, in series [5] (cress, 0,5 mmol, 7 days, 25°C, percent of control), the “TG: Rate der Keimung” value is reported as “leichte Verminderung der Keimung”. Also, in [1], the LC50 is 33 µM and 6.86 µg/mL; the EC100 was < 50 µM and < 10.4 µg/mL. Further, the “toxisches Potential pT50” value in series [6] (estimated from the mouse i.p. data (Luckey and Venugopal)) is 2,14. Further, in [6] (male Albino-Swiss mouse, intraperitoneal, 24 h), the “DL0 (letaler Effekt null)” value was 653,85 mg/kg. Moreover, the DL50 in [6] (male Albino-Swiss mouse, intraperitoneal, 24 h, estimated from regression curve, 1440 min) was 1492*** mg/Kg. Besides, the LD50 at 24 h in series [7] is 1490 mg/kg. Besides, the “Effekt auf Pflanzen der Bananenpflanzung” value in series [8] (0,05 and 0,5 mmol with irrigation water, after 3 months, greenhouse pots) was “keinen Effekt”. Moreover, in series [8] (after 6 months, treated banana plants in the greenhouse of Example 1.2), the “Effekt auf Pflanzen der Bananenpflanzung” value is “Ebensowenig stellt man einen Effekt”. For the same compound, the “mittlerer Befallindex (ima)” value in series [9] was 3. Also, the LC50 at 24 h in series [10] worked out at 24.7 µM. Moreover, in series [11], the Näherungsweiseeffektivität is about 75% and the “lebende Larven der M. javanica” value amounted to 25%. In series [12] (TE: Rate der Verlängerung), the activity at 168 h, 50 µM amounted to 105% and the activity at 168 h, 500 µM worked out at 89.2%. In [12] (TG: Rate der Keimung), the activity at 168 h, 50 µM was 103% and the activity at 168 h, 500 µM came out at 100%. In [13], the “Rate der Keimung” value is “variierte bei der Tomate nicht” and the Verlängerungsrate entry is “variierte bei der Tomate nicht signifikant”.

Turning to `CC(=O)/C=C/c1ccccc1` [Verbindung 5, trans-4-Phenyl-3-buten-2-on], the LC50 in series [1] was 168 µM and 24.6 µg/mL. Also, the EC100 in series [1] is < 1000 µM and < 146 µg/mL. Moreover, the LD50 in series [14] (intraperitoneal) is 1210 mg/kg; in series [14] (intravenous) it was 112 mg/kg.

`CNC(=O)ON=C(SC)C(=O)N(C)C` [Oxamilo]: the DL50 in series [2] is 2,3 mg/Kg.

`CC(=O)C#Cc1ccccc1` [Verbindung 1, 4-Phenyl-3-butin-2-on]: in series [1], the LC50 was 3.7 µM and 0.53 µg/mL; the EC100 is < 50 µM and < 7.21 µg/mL. Also, the “toxischer Effekt” value in series [14] (56 mg/kg intravenous) is on record as “keinen toxischen Effekt”.

Consider `C=C[S+]([O-])c1ccccc1` (centres unmarked) [Verbindung 4, Phenylvinylsulfoxid], for which, in series [1], the LC50 was 111 µM and 16.9 µg/mL; the EC100 is < 1000 µM and < 152 µg/mL.

Take `C=CSc1ccccc1` [Verbindung 2, Phenylvinylsulfid]: the LC50 in [1] was 21 µM and 2.86 µg/mL.
